Article PMC6628435, “Chemical Synthesis, Proper Folding, Nav Channel Selectivity Profile and Analgesic Properties of the Spider Peptide Phlotoxin 1” (Toxins, 2019)
Bridge positions count the residues as written; N and C are the ends. Peptide text beside a SMILES is read from it.

Assays:
[1] = target: T1, human Nav1.7 (Homo sapiens, UniProt Q15858); experiment: Automated patch-clamp (Nanion SyncroPatch 384PE) on CHO cells expressing human Nav1.7; format: cell-based; conditions: for block of Nav1.7 inward current: 100 nM toxin, end of application (about 12-13 min), CHO hNav1.7; for Hill value: same dose-response fit as IC50, CHO hNav1.7 automated patch-clamp
T1 construct: expressed in transfected cells
T1 sequence (Q15858 whole entry): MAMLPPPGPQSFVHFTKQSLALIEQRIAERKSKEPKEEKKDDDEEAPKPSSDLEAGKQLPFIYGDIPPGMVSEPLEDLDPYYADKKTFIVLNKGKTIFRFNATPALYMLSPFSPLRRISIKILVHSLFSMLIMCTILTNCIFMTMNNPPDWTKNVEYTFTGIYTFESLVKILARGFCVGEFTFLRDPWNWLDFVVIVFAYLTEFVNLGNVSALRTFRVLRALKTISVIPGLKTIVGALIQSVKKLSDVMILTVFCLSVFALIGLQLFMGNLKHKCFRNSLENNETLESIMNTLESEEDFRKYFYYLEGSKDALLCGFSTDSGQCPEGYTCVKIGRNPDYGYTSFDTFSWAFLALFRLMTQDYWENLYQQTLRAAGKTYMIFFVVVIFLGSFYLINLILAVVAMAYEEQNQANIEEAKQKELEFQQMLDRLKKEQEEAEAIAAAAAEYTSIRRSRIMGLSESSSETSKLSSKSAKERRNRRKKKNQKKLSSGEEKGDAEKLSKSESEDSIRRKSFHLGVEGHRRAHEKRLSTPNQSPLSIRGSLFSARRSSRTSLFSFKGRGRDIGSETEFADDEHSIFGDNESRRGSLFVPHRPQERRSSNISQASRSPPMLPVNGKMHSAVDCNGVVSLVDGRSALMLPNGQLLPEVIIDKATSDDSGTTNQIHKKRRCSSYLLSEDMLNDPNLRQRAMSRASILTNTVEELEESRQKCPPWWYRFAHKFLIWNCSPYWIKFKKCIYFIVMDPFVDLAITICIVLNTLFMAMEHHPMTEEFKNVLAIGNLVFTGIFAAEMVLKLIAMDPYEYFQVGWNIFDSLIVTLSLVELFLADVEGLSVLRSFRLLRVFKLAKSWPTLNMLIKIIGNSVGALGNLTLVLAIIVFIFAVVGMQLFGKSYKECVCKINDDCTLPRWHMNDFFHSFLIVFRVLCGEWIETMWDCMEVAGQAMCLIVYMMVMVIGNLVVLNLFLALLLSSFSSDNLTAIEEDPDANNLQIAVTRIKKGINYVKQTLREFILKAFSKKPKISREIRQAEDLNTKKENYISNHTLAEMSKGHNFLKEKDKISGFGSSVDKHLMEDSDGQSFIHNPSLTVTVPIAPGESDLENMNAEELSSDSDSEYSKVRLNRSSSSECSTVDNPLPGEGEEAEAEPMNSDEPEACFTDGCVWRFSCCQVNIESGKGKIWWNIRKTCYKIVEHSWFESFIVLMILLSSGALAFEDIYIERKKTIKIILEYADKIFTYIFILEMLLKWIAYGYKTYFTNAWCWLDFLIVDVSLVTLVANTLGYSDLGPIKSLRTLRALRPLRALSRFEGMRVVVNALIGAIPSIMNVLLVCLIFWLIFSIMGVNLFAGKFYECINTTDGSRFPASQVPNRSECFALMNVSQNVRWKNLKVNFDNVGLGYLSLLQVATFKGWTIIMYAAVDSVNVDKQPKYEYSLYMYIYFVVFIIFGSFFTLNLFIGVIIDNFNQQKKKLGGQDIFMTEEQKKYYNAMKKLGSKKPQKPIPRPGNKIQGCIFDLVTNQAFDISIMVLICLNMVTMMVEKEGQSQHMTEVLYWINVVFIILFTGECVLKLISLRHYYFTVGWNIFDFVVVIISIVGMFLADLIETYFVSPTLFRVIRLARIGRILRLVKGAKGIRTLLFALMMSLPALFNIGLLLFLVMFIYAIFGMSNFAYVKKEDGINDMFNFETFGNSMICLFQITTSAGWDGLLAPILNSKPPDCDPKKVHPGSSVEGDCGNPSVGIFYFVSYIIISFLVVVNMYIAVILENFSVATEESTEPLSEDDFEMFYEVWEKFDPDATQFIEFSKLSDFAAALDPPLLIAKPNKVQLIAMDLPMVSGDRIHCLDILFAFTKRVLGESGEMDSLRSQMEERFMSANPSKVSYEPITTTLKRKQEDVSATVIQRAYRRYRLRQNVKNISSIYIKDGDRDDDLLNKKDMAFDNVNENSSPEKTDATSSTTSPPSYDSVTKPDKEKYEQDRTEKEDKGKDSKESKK
Source text: We used a CHO mammalian cell line expressing the human Nav1.7 instead of Xenopus oocytes for the pharmacological evaluation. […] 100-ms pulses from −100 mV to −10 mV were applied at a frequency of 0.2 Hz and various concentrations of PhlTx1 were applied to the cells. […] Using a manual patch clamp, which is better suited to investigate current recovery from block than an automated patch clamp that requires several washing steps, we investigated the reversibility properties of a PhlTx1 block.
CHO cells stably expressing the human Nav1.7 cells were cultured in Dulbecco’s Modified Eagle’s Medium (DMEM) supplemented with 10% fetal calf serum, 1 mM pyruvic acid, 4 mM glutamine, 10 IU/mL penicillin and 10 μg/mL streptomycin (Gibco, Grand Island, NY, USA), and incubated at 37 °C in a 5% CO2 atmosphere. For automated patch-clamp recordings, cells were detached with trypsin and floating single cells were diluted (~300,000 cells/mL) in medium contained (in mM): 4 KCl, 140 NaCl, 5 Glucose, 10 HEPES (pH 7.4, osmolarity 290 mOsm).
Chips with single-hole and high-resistance (~6–7 MΩ) were used for CHO cell recordings. Voltage pulses and whole-cell recordings were achieved using the PatchControl384 v1.5.2 software (Nanion, Munich, Germany) and the Biomek v1.0 interface (Beckman Coulter). Prior recordings, dissociated cells were shaken at 60 RPM in a cell hotel reservoir at 10 °C. After cell catching, sealing, whole-cell formation, liquid application, recording, and data acquisition were all performed sequentially and automatically. […] Whole-cell experiments were done at −100 mV holding potential and at room temperature (18–22 °C), while currents triggered at −10 mV test potential were sampled at 20 kHz. Stimulation frequency was set at 0.2 Hz. Toxins were prepared at various concentrations in the extracellular solution, itself supplemented with 0.3% BSA. […] Compound solutions were diluted 3 times in the patch-clamp recording well by adding 30 μL to 60 μL external solution to reach the final reported concentration and the test volume of 90 μL. Percentages of current inhibitions were measured at the end of a 12- to 15-min application time (12-min for fast blocking toxins; 15-min for slow blocking ones). A single concentration of peptide was tested on each cell for building the full-inhibition curves.

[2] = test system: human Nav1.7 channel; conditions: ref [45]; cited from earlier work
[3] = test system: formalin-induced spontaneous pain behavior; experiment: Formalin pain test in mice after intrathecal injection; format: in vivo, C57BL/6J mice; conditions: mouse, in vivo

| Structure (SMILES) | IC50 [1] | block of Nav1.7 inward current [1] | also measured |
| --- | --- | --- | --- |
| CC[C@H](C)[C@@H]1NC(=O)[C@H](CC(N)=O)NC(=O)[C@H](CCCNC(=N)N)NC(=O)[C@@H]2CCCN2C(=O)[C@H](Cc2c[nH]c3ccccc23)NC(=O)[C@H](CCCCN)NC(=O)[C@H](CO)NC(=O)[C@H](CCCCN)NC(=O)[C@@H]2CSSC[C@@H]3NC(=O)[C@H](CCCCN)NC(=O)CNC(=O)[C@H](Cc4c[nH]c5ccccc45)NC(=O)[C@H](Cc4ccccc4)NC(=O)[C@H](CCCNC(=N)N)NC(=O)[C@H](C(C)C)NC(=O)[C@@H](NC(=O)[C@@H](N)CC(=O)O)CSSC[C@H](NC(=O)[C@H](CSSC[C@@H](C(=O)N[C@H](C(=O)N[C@@H](Cc4c[nH]c5ccccc45)C(=O)N[C@@H](CC(=O)O)C(=O)NCC(=O)N[C@@H](CO)C(=O)N[C@H](C(=O)O)C(C)C)C(C)C)NC1=O)NC(=O)[C@H](CC(=O)O)NC(=O)[C@H](CO)NC(=O)[C@H]([C@@H](C)O)NC(=O)[C@H](CCC(N)=O)NC(=O)[C@H](CO)NC3=O)C(=O)N1CCC[C@H]1C(=O)N[C@@H](Cc1c[nH]cn1)C(=O)N[C@@H](CC(C)C)C(=O)N[C@@H](C)C(=O)N2 [GrTx1] | 15.3 nM | about 50% |  |
| CC[C@H](C)[C@H](NC(=O)[C@H](CCCCN)NC(=O)[C@H](CCCCN)NC(=O)[C@H](CCCCN)NC(=O)[C@@H]1CSSC[C@@H]2NC(=O)[C@H](CCCCN)NC(=O)[C@H](CCCNC(=N)N)NC(=O)[C@H](CCC(=O)O)NC(=O)[C@H](CCC(=O)O)NC(=O)[C@H](CC(=O)O)NC(=O)[C@@H]3CSSC[C@H](NC(=O)[C@H](C(C)C)NC(=O)[C@H](CC(C)C)NC(=O)CNC(=O)[C@H](CCC(=O)O)NC(=O)[C@H](CSSC[C@H](NC(=O)[C@@H](N)Cc4ccc(O)cc4)C(=O)N[C@@H](CCC(N)=O)C(=O)N[C@@H](CCCCN)C(=O)N[C@@H](Cc4c[nH]c5ccccc45)C(=O)N[C@@H](CCSC)C(=O)N[C@@H](Cc4c[nH]c5ccccc45)C(=O)N[C@@H]([C@@H](C)O)C(=O)N3)NC2=O)C(=O)N[C@@H](CCCNC(=N)N)C(=O)N[C@@H](CC(C)C)C(=O)N[C@@H](Cc2c[nH]c3ccccc23)C(=O)N1)C(=O)N[C@@H](CCC(=O)O)C(=O)N[C@@H](Cc1c[nH]c2ccccc12)C(=O)O [GsAFII] (H-YCQKWMWTCDEERKCCEGLVCRLWCKKKIEW-OH; disulfide 2-16, 9-21, 15-25) | 13.6 nM |  |  |
| CC[C@H](C)[C@H](NC(=O)[C@H](CCC(=O)O)NC(=O)[C@H](Cc1ccc(O)cc1)NC(=O)[C@H](CCCCN)NC(=O)[C@@H]1CSSC[C@@H]2NC(=O)[C@H](CCC(N)=O)NC(=O)[C@H](CC(=O)O)NC(=O)[C@H](CC(N)=O)NC(=O)[C@H](CO)NC(=O)[C@@H]3CCCN3C(=O)[C@H](CC(N)=O)NC(=O)[C@@H]3CSSC[C@H](NC(=O)[C@H](C(C)C)NC(=O)[C@H](CC(C)C)NC(=O)[C@H](CC(N)=O)NC(=O)[C@H](CO)NC(=O)[C@H](CO)NC(=O)[C@H](CCCCN)NC(=O)[C@H](CSSC[C@H](NC(=O)[C@@H](N)CCC(=O)O)C(=O)N[C@@H](CC(C)C)C(=O)NCC(=O)N[C@@H](Cc4ccccc4)C(=O)NCC(=O)N[C@@H](CCCCN)C(=O)NCC(=O)N3)NC2=O)C(=O)N[C@@H](CO)C(=O)N[C@@H](CCCNC(=N)N)C(=O)N[C@@H](CCCCN)C(=O)N[C@@H](Cc2c[nH]cn2)C(=O)N[C@@H](CCCNC(=N)N)C(=O)N[C@@H](Cc2c[nH]c3ccccc23)C(=O)N1)C(N)=O [HnTx-IV] | 4.3 nM |  |  |
| CC(C)C[C@H](NC(=O)[C@H](CCCCN)NC(=O)[C@H](Cc1c[nH]c2ccccc12)NC(=O)[C@H](CCCCN)NC(=O)[C@@H]1CSSC[C@@H]2NC(=O)[C@H](CCC(=O)O)NC(=O)[C@H](CC(N)=O)NC(=O)[C@H](CCCCN)NC(=O)CNC(=O)[C@@H]3CCCN3C(=O)[C@H]([C@@H](C)O)NC(=O)[C@@H]3CSSC[C@H](NC(=O)[C@H](C(C)C)NC(=O)[C@H](CCCNC(=N)N)NC(=O)[C@H](CC(N)=O)NC(=O)[C@@H]4CCCN4C(=O)[C@H](CSSC[C@H](NC(=O)[C@H](C)N)C(=O)N[C@@H](CCCCN)C(=O)NCC(=O)N[C@@H](C(C)C)C(=O)N[C@@H](Cc4ccccc4)C(=O)N[C@@H](CC(=O)O)C(=O)N[C@@H](C)C(=O)N3)NC2=O)C(=O)N[C@@H](CO)C(=O)N[C@@H](CC(=O)O)C(=O)N[C@@H](CCCCN)C(=O)N[C@@H](Cc2c[nH]cn2)C(=O)N[C@@H](CCCCN)C(=O)N[C@@H](Cc2c[nH]c3ccccc23)C(=O)N1)C(=O)O [HwTx-I] (H-ACKGVFDACTPGKNECCPNRVCSDKHKWCKWKL-OH; disulfide 2-17, 9-22, 16-29; N-terminus and C-terminus assumed) |  | incomplete block | time constant of inhibition (τ) ([1]; 100 nM, mono-exponential fit (PhlTx1 n = 8)): 492 s; Hill value [1]: 2.3 |
| CSCC[C@@H]1NC(=O)[C@H](Cc2ccc(O)cc2)NC(=O)[C@H](CCCNC(=N)N)NC(=O)[C@@H](NC(=O)[C@@H](N)CC(=O)O)CSSC[C@@H]2NC(=O)[C@@H]3CSSC[C@@H](C(=O)N[C@@H](C)C(=O)N[C@@H](Cc4c[nH]c5ccccc45)C(=O)N[C@@H](CC(=O)O)C(=O)N[C@@H](Cc4ccccc4)C(=O)N[C@H](C(=O)N[C@@H](Cc4ccccc4)C(=O)N[C@H](C(=O)O)[C@@H](C)O)[C@@H](C)O)NC(=O)[C@H](Cc4ccc(O)cc4)NC(=O)[C@H](CCCCN)NC(=O)[C@H](CCSC)NC(=O)[C@H](CCCCN)NC(=O)[C@H](CCCNC(=N)N)NC(=O)[C@H](CCCCN)NC(=O)[C@H](CSSC[C@H](NC(=O)[C@H](CC(=O)O)NC(=O)CNC(=O)[C@H](Cc4ccccc4)NC1=O)C(=O)N[C@@H](CCC(=O)O)C(=O)N[C@@H](CCCCN)C(=O)N[C@@H](CC(=O)O)C(=O)N[C@@H](CCC(=O)O)C(=O)N[C@@H](CC(=O)O)C(=O)N3)NC(=O)CNC(=O)[C@H](CC(C)C)NC(=O)[C@H](Cc1c[nH]cn1)NC(=O)[C@H](CCCCN)NC2=O [Pn3a] |  | fully insensitive | IC50 [2]: 0.9 nM; Hill value [1]: 3 |
| CC(C)C[C@@H]1NC(=O)[C@H](Cc2c[nH]c3ccccc23)NC(=O)[C@H](Cc2ccc(O)cc2)NC(=O)[C@H](CCCNC(=N)N)NC(=O)[C@@H](NC(=O)[C@@H](N)CCC(=O)O)CSSC[C@@H]2NC(=O)[C@@H]3CSSC[C@@H](C(=O)N[C@H](C(=O)N[C@@H](Cc4c[nH]c5ccccc45)C(=O)N[C@@H](CC(=O)O)C(=O)NCC(=O)N[C@H](C(=O)N[C@@H](Cc4ccccc4)C(=O)N[C@@H](CO)C(=O)O)[C@@H](C)O)C(C)C)NC(=O)[C@H](Cc4c[nH]c5ccccc45)NC(=O)CNC(=O)[C@H](Cc4c[nH]cn4)NC(=O)[C@H](CCCNC(=N)N)NC(=O)[C@H](CCCNC(=N)N)NC(=O)[C@H](CO)NC(=O)[C@H](CSSC[C@H](NC(=O)CNC(=O)CNC1=O)C(=O)N[C@@H](CO)C(=O)N[C@@H](C)C(=O)NCC(=O)N[C@@H](CCC(N)=O)C(=O)N[C@@H]([C@@H](C)O)C(=O)N3)NC(=O)[C@H](C(C)C)NC(=O)[C@H](CC(C)C)NC(=O)[C@H](Cc1c[nH]cn1)NC(=O)[C@H](CCCCN)NC2=O [ProTx-I] | 7.1 nM |  |  |
| CN1CC[C@]23c4c5ccc(O)c4O[C@H]2[C@@H](O)C=C[C@H]3[C@H]1C5 [morphine, reference compound] |  |  | formalin-induced pain behavior (licking), Phase II (inflammation, 10–45 min) [3]: 0 |
